Measurements: publication PMC12377485, “Targeting the ANXA8–SP1–PPA1 Axis to Modulate TCA Cycle and Matrix Deposition in Diffuse-Type Gastric Cancer” (Research, 2025)

Target: T1, ANXA8 (Homo sapiens, UniProt P13928)
T1 construct: commercial recombinant protein (MCE); His tag implied by RED-tris-NTA labelling
T1 sequence (P13928 1-327): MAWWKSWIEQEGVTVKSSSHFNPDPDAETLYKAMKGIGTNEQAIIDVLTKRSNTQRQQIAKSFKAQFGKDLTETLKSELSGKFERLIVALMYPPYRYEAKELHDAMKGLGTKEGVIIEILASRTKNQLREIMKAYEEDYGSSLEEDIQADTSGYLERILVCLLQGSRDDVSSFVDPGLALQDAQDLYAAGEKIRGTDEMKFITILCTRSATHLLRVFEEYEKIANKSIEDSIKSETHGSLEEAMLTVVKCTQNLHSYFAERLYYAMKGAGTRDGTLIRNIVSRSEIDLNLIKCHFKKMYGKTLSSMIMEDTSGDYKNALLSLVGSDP
Experiment: microscale thermophoresis (Monolith NT.[…]), one-site fit
Type: binding

Kd: 83.5 nM
Structure (SMILES): CCCCNc1ncc2c(-c3ccc(CN4CCN(C)CC4)cc3)cn([C@H]3CC[C@H](O)CC3)c2n1 [UNC2025]
